# Data published in patent US11203633B2, “Polynucleotides encoding antibodies or antigen binding fragments thereof that bind pseudomonas perv” (priority 2011, dated 2021).
# Columns and labels:
# [1] = system: wild type PAO1, PAO1ΔpslA and PAO1ΔpslA complemented with pslA; experiment: OPK assay with PAO1 pslA mutant strains; assay type: cell-based, Pseudomonas aeruginosa; settings: FIG. 3F-G
# Experimental: This example describes the evaluation of prioritized human IgG1 antibodies to promote OPK of P. aeruginosa. […] OPK assays were performed as described in (DiGiandomenico, A., et al., Infect Immun 72, 7012-7021 (2004)), with modifications. Briefly, assays were performed in 96-well plates using 0.025 ml of each OPK component; P. aeruginosa strains; diluted baby rabbit serum; differentiated HL-60 cells; and monoclonal antibody. In some OPK assays, luminescent P. aeruginosa strains, which were constructed as described (Choi, K. H., et al., Nat Methods 2, 443-448 (2005)), were used. Luminescent OPK assays were performed as described above but with determination of relative luciferase units (RLUs) using a Perkin Elmer ENVISION Multilabel plate reader (Perkin Elmer).
# This example describes identification of the target of anti-P. aeruginosa antibodies derived from phenotypic screening. Target analysis was performed to test whether the serotype independent antibodies targeted protein or carbohydrate antigens. […] Isogenic mutants were constructed in genes responsible for 0-antigen, alginate, and LPS core biosynthesis; wbpL (O-antigen-deficient); wbpL/algD (O-antigen and alginate deficient); rmlC (O-antigen-deficient and truncated outer core); and galU (O-antigen-deficient and truncated inner core). […]
# [2] = system: P. aeruginosa strain 6077 (O11-cytotoxic); experiment: Corneal infection (ocular keratitis) model in mice; assay type: in vivo, Pseudomonas aeruginosa; settings: C3H/HeN mice; IP, 16 hours prior to infection with 6077 1×10^6 CFU; graded at 48 h; FIG. 8H
# Experimental: Antibodies or PBS were administered 24 hours before infection in each model. P. aeruginosa acute pneumonia, keratitis, and thermal injury infection models were performed as described (DiGiandomenico, A., et al., Proc Natl Acad Sci USA 104, 4624-4629 (2007)), with modifications. In the acute pneumonia model, BALB/c mice (The Jackson Laboratory) were infected with P. aeruginosa strains suspended in a 0.05 ml inoculum. In the thermal injury model, CF-1 mice (Charles River) received a 10% total body surface area burn with a metal brand heated to 92° C. for 10 seconds. Animals were infected subcutaneously with P. aeruginosa strain 6077 at the indicated dose. For organ burden experiments, acute pneumonia was induced in mice followed by harvesting of lungs, spleens, and kidneys 24 hours post-infection for determination of CFU.
# Cam-003 and WapR-004 efficacy was next evaluated in a P. aeruginosa corneal infection model which emphasizes the pathogens ability to attach and colonize damaged tissue. […] FIG. 8 (H): The activity of anti-Psl and anti-PcrV monoclonal antibodies V2L2 was tested in a P. aeruginosa mouse ocular keratitis model. […]
substance,measurement,setting,value
"Cam-003: anti-Psl human IgG1 monoclonal antibody; VH SEQ ID NO:1, VL SEQ ID NO:2",opsonophagocytic killing of Psl-producing vs Psl-deficient strains,[1],only mediates killing of strains capable of producing Psl
same,corneal pathology and CFU in total eye homogenates vs R347,[2],significantly less pathology and reduced bacterial colony forming units (CFU) in total eye homogenates
